Test results from ChEMBL document CHEMBL1770109, “SAR studies of pyridazinone derivatives as novel glucan synthase inhibitors” (Bioorg Med Chem Lett, 2011).
Values after ≈ are worked out from the molar mass of the structure shown.

Experiments:
Nakaseomyces glabratus = assay: Antifungal activity against Candida glabrata C624; format: functional; conditions: read-out: MIC100
Candida albicans = assay: Antifungal activity against Candida albicans C693; format: functional; conditions: for MIC: read-out: MIC100
Beta-1,3-glucan synthase = Beta-1,3-glucan synthase (Candida albicans, UniProt O13428); assay: Inhibition of Candida albicans BWP17 1,3-beta-glucan synthase
[1] = AUC (0 to 6 hrs) in rat at 10 mg/kg, po; format: ADME, organism-based; parameters: time < 6 hr, dose 10 mg/kg, route oral; conditions: plasma

Chain of Beta-1,3-glucan synthase (O13428 whole entry): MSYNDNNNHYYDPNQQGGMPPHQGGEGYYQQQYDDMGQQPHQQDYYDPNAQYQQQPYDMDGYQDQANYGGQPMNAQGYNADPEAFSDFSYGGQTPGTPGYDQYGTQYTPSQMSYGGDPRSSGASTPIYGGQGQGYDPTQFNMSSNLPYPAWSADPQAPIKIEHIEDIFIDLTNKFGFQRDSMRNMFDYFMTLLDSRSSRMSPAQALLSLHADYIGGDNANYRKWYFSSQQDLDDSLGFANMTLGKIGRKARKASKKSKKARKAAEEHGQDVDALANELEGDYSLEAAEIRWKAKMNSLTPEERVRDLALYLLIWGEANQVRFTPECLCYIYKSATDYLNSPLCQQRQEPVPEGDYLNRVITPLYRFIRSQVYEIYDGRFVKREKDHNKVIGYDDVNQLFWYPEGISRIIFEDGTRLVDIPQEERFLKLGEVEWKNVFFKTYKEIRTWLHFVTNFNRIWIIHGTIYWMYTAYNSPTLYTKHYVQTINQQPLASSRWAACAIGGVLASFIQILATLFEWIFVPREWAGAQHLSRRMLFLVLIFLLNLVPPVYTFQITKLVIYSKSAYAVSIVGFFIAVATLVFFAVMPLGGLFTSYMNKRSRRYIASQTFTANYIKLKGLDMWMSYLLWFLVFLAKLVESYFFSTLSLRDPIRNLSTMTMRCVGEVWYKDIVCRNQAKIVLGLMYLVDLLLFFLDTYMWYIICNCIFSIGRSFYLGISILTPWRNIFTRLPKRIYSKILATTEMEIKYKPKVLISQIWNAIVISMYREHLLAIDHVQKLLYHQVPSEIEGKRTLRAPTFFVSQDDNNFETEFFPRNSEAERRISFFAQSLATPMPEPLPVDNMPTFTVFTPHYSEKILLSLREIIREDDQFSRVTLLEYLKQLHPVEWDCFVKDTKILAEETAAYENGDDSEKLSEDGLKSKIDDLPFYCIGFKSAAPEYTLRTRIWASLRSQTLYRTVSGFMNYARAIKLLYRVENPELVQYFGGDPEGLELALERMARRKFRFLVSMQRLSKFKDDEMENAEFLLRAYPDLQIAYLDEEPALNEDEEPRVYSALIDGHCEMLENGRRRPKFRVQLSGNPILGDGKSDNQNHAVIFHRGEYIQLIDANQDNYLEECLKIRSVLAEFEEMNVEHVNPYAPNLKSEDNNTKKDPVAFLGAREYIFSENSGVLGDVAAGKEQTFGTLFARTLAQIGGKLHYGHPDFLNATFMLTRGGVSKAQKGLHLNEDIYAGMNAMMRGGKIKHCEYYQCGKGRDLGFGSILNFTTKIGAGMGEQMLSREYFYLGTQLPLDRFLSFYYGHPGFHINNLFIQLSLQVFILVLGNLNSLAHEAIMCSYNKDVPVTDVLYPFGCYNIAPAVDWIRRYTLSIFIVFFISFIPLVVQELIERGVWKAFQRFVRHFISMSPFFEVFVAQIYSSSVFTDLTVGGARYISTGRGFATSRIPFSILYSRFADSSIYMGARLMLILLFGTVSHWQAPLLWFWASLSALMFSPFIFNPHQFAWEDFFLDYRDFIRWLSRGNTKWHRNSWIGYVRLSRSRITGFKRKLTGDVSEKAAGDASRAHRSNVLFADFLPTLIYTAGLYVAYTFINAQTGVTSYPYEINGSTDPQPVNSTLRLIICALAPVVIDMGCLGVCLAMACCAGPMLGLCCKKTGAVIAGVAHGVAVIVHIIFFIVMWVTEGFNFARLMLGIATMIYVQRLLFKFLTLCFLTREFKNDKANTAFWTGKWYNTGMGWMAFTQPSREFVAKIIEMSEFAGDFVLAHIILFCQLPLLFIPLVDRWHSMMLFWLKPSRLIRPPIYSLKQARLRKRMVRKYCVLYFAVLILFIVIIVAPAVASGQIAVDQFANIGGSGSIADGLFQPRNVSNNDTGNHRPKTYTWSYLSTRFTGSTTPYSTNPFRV

Question: For `O=c1c(-c2ccc(F)cc2)c(N2CCN(S(=O)(=O)Cc3ccccc3)CC2)cnn1-c1ccccc1`, which MIC (Nakaseomyces glabratus) is on record?
Answer: 0.05 µg/mL (≈ 0.0991 µM)

Question: What about the MIC (Candida albicans) of the same compound?
Answer: 6.25 µg/mL (≈ 12.4 µM)

Question: Which IC50 (Beta-1,3-glucan synthase) does the source give for `O=c1c(OC2CCCC2)c(N2CCN(S(=O)(=O)CCc3ccccc3)CC2)cnn1-c1cccc(Cl)c1` here?
Answer: 1470 nM

Question: What about the MIC (Nakaseomyces glabratus) of the same compound?
Answer: 0.08 µg/mL (≈ 0.147 µM)

Question: And the MIC (Candida albicans)?
Answer: 5 µg/mL (≈ 9.21 µM)

Question: For `CCOCCOc1nn(-c2ccccc2)c(=O)c(OCCOCC)c1N1CCN(S(=O)(=O)Cc2ccccc2)CC1`, which IC50 (Beta-1,3-glucan synthase) is on record?
Answer: 7160 nM

Question: And the MIC (Nakaseomyces glabratus)?
Answer: 6.25 µg/mL (≈ 10.7 µM)

Question: What about the MIC (Candida albicans) of the same compound?
Answer: > 50 µg/mL

Question: For `O=c1c(OC2CCCC2)c(N2CCN(S(=O)(=O)Cc3noc4ccccc34)CC2)cnn1-c1cccc(Cl)c1`, which IC50 (Beta-1,3-glucan synthase) is on record?
Answer: 140 nM

Question: And the MIC (Nakaseomyces glabratus)?
Answer: 0.05 µg/mL (≈ 0.0877 µM)

Question: What about the MIC (Candida albicans) of the same compound?
Answer: 0.78 µg/mL (≈ 1.37 µM)

Question: With `Cc1ccc(CS(=O)(=O)N2CCN(c3cnn(-c4cccc(Cl)c4)c(=O)c3OC3CCCC3)CC2)cc1` as the compound, how does the MIC (Nakaseomyces glabratus) read?
Answer: 0.08 µg/mL (≈ 0.147 µM)

Question: And the MIC (Candida albicans)?
Answer: 0.31 µg/mL (≈ 0.571 µM)

Question: For `CCOCCOc1c(N2CCN(S(=O)(=O)Cc3ccccc3)CC2)cnn(-c2ccccc2)c1=O`, which IC50 (Beta-1,3-glucan synthase) is on record?
Answer: 1810 nM

Question: What about the MIC (Nakaseomyces glabratus) of the same compound?
Answer: 0.1 µg/mL (≈ 0.201 µM)

Question: And the MIC (Candida albicans)?
Answer: 3.13 µg/mL (≈ 6.28 µM)

Question: For `O=c1c(OC2CCCC2)c(N2CCN(S(=O)(=O)c3ccsc3)CC2)cnn1-c1cccc(Cl)c1`, which IC50 (Beta-1,3-glucan synthase) is on record?
Answer: 806 nM

Question: And the MIC (Nakaseomyces glabratus)?
Answer: 0.05 µg/mL (≈ 0.096 µM)

Question: What about the MIC (Candida albicans) of the same compound?
Answer: 0.78 µg/mL (≈ 1.5 µM)

Question: With `Nc1ccc(CS(=O)(=O)N2CCN(c3cnn(-c4cccc(Cl)c4)c(=O)c3OC3CCCC3)CC2)cc1` as the compound, how does the AUC(0-t) at 6 h [1] read?
Answer: 80 ng·h/mL

Question: What about the MIC (Nakaseomyces glabratus) of the same compound?
Answer: 0.2 µg/mL (≈ 0.368 µM)

Question: And the MIC (Candida albicans)?
Answer: 0.78 µg/mL (≈ 1.43 µM)

Question: What does the source list for `O=c1c(OC2CCCC2)c(N2CCN(S(=O)(=O)CCCc3ccccc3)CC2)cnn1-c1cccc(Cl)c1`?
Answer: IC50 (Beta-1,3-glucan synthase): 41300 nM; MIC (Nakaseomyces glabratus): 3.13 µg/mL (≈ 5.62 µM); MIC (Candida albicans): > 50 µg/mL

Question: With `O=c1c(OC2CCCC2)c(N2CCN(S(=O)(=O)Cc3ccsc3)CC2)cnn1-c1cccc(Cl)c1` as the compound, how does the IC50 (Beta-1,3-glucan synthase) read?
Answer: 411 nM

Question: And the MIC (Nakaseomyces glabratus)?
Answer: 0.02 µg/mL (≈ 0.0374 µM)

Question: What about the MIC (Candida albicans) of the same compound?
Answer: 2.1 µg/mL (≈ 3.92 µM)

Question: What does the source list for `O=c1c(OC2CCCC2)c(N2CCN(S(=O)(=O)Cc3ccc(F)cc3)CC2)cnn1-c1cccc(Cl)c1`?
Answer: MIC (Nakaseomyces glabratus): 0.05 µg/mL (≈ 0.0914 µM); MIC (Candida albicans): 1.56 µg/mL (≈ 2.85 µM)

Question: For `O=c1c(OC2CCCC2)c(N2CCN(S(=O)(=O)C3CCCC3)CC2)cnn1-c1cccc(Cl)c1`, which IC50 (Beta-1,3-glucan synthase) is on record?
Answer: 1220 nM

Question: And the MIC (Nakaseomyces glabratus)?
Answer: 0.1 µg/mL (≈ 0.197 µM)

Question: And the MIC (Candida albicans)?
Answer: 3.13 µg/mL (≈ 6.17 µM)

Question: With `CCOC(=O)c1ccc(CS(=O)(=O)N2CCN(c3cnn(-c4cccc(Cl)c4)c(=O)c3OC3CCCC3)CC2)cc1` as the compound, how does the MIC (Nakaseomyces glabratus) read?
Answer: 0.78 µg/mL (≈ 1.3 µM)

Question: And the MIC (Candida albicans)?
Answer: 6.25 µg/mL (≈ 10.4 µM)

Question: For `Nc1cccc(CS(=O)(=O)N2CCN(c3cnn(-c4cccc(Cl)c4)c(=O)c3OC3CCCC3)CC2)c1`, which AUC(0-t) at 6 h [1] is on record?
Answer: 50 ng·h/mL

Question: What about the MIC (Nakaseomyces glabratus) of the same compound?
Answer: 0.39 µg/mL (≈ 0.717 µM)

Question: What about the MIC (Candida albicans) of the same compound?
Answer: 3.13 µg/mL (≈ 5.75 µM)

Question: Which results are given for `CCOCCOc1c(N2CCN(S(=O)(=O)Cc3ccccc3)CC2)c(C)nn(-c2ccccc2)c1=O`?
Answer: IC50 (Beta-1,3-glucan synthase): 139000 nM; MIC (Nakaseomyces glabratus): 25 µg/mL (≈ 48.8 µM); MIC (Candida albicans): > 50 µg/mL

Question: Which results are given for `O=c1c(OC2CCCC2)c(N2CCN(S(=O)(=O)Cc3ccc([N+](=O)[O-])cc3)CC2)cnn1-c1cccc(Cl)c1`?
Answer: MIC (Nakaseomyces glabratus): 0.05 µg/mL (≈ 0.0871 µM); MIC (Candida albicans): 0.78 µg/mL (≈ 1.36 µM)

Question: For `O=c1c(OC2CCCC2)c(N2CCN(S(=O)(=O)C3Cc4ccccc4C3)CC2)cnn1-c1cccc(Cl)c1`, which IC50 (Beta-1,3-glucan synthase) is on record?
Answer: 522 nM

Question: And the MIC (Nakaseomyces glabratus)?
Answer: 0.1 µg/mL (≈ 0.18 µM)

Question: And the MIC (Candida albicans)?
Answer: 1.56 µg/mL (≈ 2.81 µM)

Question: With `O=c1c(OC2CCCC2)c(N2CCN(S(=O)(=O)Cc3ccccc3)CC2)cnn1-c1cccc(Cl)c1` as the compound, how does the IC50 (Beta-1,3-glucan synthase) read?
Answer: 378 nM

Question: What about the MIC (Nakaseomyces glabratus) of the same compound?
Answer: 0.02 µg/mL (≈ 0.0378 µM)

Question: And the MIC (Candida albicans)?
Answer: 0.39 µg/mL (≈ 0.737 µM)

Question: With `O=C(O)c1ccc(CS(=O)(=O)N2CCN(c3cnn(-c4cccc(Cl)c4)c(=O)c3OC3CCCC3)CC2)cc1` as the compound, how does the AUC(0-t) at 6 h [1] read?
Answer: 130 ng·h/mL

Question: And the MIC (Nakaseomyces glabratus)?
Answer: 25 µg/mL (≈ 43.6 µM)

Question: And the MIC (Candida albicans)?
Answer: > 50 µg/mL

Question: Which results are given for `Cn1ccc2ccc(S(=O)(=O)N3CCN(c4cnn(-c5cccc(Cl)c5)c(=O)c4OC4CCCC4)CC3)cc21`?
Answer: IC50 (Beta-1,3-glucan synthase): 282 nM; MIC (Nakaseomyces glabratus): 0.2 µg/mL (≈ 0.352 µM); MIC50 (Candida albicans): 0.78 µg/mL (≈ 1.37 µM)

Question: Which results are given for `O=c1c(-c2ccc(F)cc2)c(N2CCN(S(=O)(=O)Cc3ccccc3)CC2)ccn1-c1ccccc1`?
Answer: IC50 (Beta-1,3-glucan synthase): 4770 nM; MIC (Nakaseomyces glabratus): 0.78 µg/mL (≈ 1.55 µM); MIC (Candida albicans): > 50 µg/mL

Question: With `O=C(O)CCS(=O)(=O)N1CCN(c2cnn(-c3cccc(Cl)c3)c(=O)c2OC2CCCC2)CC1` as the compound, how does the IC50 (Beta-1,3-glucan synthase) read?
Answer: 214000 nM

Question: And the MIC (Nakaseomyces glabratus)?
Answer: > 50 µg/mL

Question: What about the MIC (Candida albicans) of the same compound?
Answer: > 50 µg/mL

Question: With `Nc1ccccc1CS(=O)(=O)N1CCN(c2cnn(-c3cccc(Cl)c3)c(=O)c2OC2CCCC2)CC1` as the compound, how does the AUC(0-t) at 6 h [1] read?
Answer: 290 ng·h/mL

Question: What about the MIC (Nakaseomyces glabratus) of the same compound?
Answer: 0.03 µg/mL (≈ 0.0551 µM)

Question: And the MIC (Candida albicans)?
Answer: 0.35 µg/mL (≈ 0.643 µM)

Question: For `CCOCCOc1cc(-c2ccccc2)nnc1N1CCN(S(=O)(=O)Cc2ccccc2)CC1`, which IC50 (Beta-1,3-glucan synthase) is on record?
Answer: 76700 nM

Question: And the MIC (Nakaseomyces glabratus)?
Answer: > 25 µg/mL

Question: And the MIC (Candida albicans)?
Answer: > 25 µg/mL

Question: What does the source list for `CCOCCOc1cc(-c2ccccc2)ccc1N1CCN(S(=O)(=O)Cc2ccccc2)CC1`?
Answer: IC50 (Beta-1,3-glucan synthase): 287000 nM; MIC (Nakaseomyces glabratus): > 50 µg/mL; MIC (Candida albicans): > 50 µg/mL

Question: With `O=c1c(OC2CCCC2)c(N2CCN(S(=O)(=O)Cc3cccc(C(F)(F)F)c3)CC2)cnn1-c1cccc(Cl)c1` as the compound, how does the MIC (Nakaseomyces glabratus) read?
Answer: 0.78 µg/mL (≈ 1.31 µM)

Question: And the MIC (Candida albicans)?
Answer: > 50 µg/mL

Question: Which AUC(0-t) at 6 h [1] does the source give for `O=c1c(OC2CCCC2)c(N2CCN(S(=O)(=O)Cc3ccncc3)CC2)cnn1-c1cccc(Cl)c1` here?
Answer: 60 ng·h/mL

Question: What about the MIC (Nakaseomyces glabratus) of the same compound?
Answer: < 0.02 µg/mL

Question: And the MIC (Candida albicans)?
Answer: 0.2 µg/mL (≈ 0.377 µM)

Question: Which MIC (Nakaseomyces glabratus) does the source give for `N#Cc1ccc(CS(=O)(=O)N2CCN(c3cnn(-c4cccc(Cl)c4)c(=O)c3OC3CCCC3)CC2)cc1` here?
Answer: 0.02 µg/mL (≈ 0.0361 µM)

Question: And the MIC (Candida albicans)?
Answer: 0.13 µg/mL (≈ 0.235 µM)

Question: For `COCCS(=O)(=O)N1CCN(c2cnn(-c3cccc(Cl)c3)c(=O)c2OC2CCCC2)CC1`, which IC50 (Beta-1,3-glucan synthase) is on record?
Answer: 865 nM

Question: And the MIC (Nakaseomyces glabratus)?
Answer: 0.2 µg/mL (≈ 0.402 µM)

Question: What about the MIC (Candida albicans) of the same compound?
Answer: 3.13 µg/mL (≈ 6.3 µM)

Question: What does the source list for `O=c1c(OC2CCCC2)c(N2CCN(S(=O)(=O)Cc3cccc(B(O)O)c3)CC2)cnn1-c1cccc(Cl)c1`?
Answer: MIC (Nakaseomyces glabratus): 0.42 µg/mL (≈ 0.733 µM); MIC (Candida albicans): 13.4 µg/mL (≈ 23.4 µM)

Question: Which results are given for `CC(C)(C)S(=O)(=O)N1CCN(c2cnn(-c3cccc(Cl)c3)c(=O)c2OC2CCCC2)CC1`?
Answer: IC50 (Beta-1,3-glucan synthase): 828 nM; MIC (Nakaseomyces glabratus): 0.1 µg/mL (≈ 0.202 µM); MIC50 (Candida albicans): 0.78 µg/mL (≈ 1.58 µM)

Question: With `O=c1c(OC2CCCC2)c(N2CCN(S(=O)(=O)c3ccc4ccccc4c3)CC2)cnn1-c1cccc(Cl)c1` as the compound, how does the IC50 (Beta-1,3-glucan synthase) read?
Answer: 131 nM

Question: What about the MIC (Nakaseomyces glabratus) of the same compound?
Answer: 1.04 µg/mL (≈ 1.84 µM)

Question: And the MIC (Candida albicans)?
Answer: 33.4 µg/mL (≈ 59.1 µM)

Question: For `CCCCCCc1c(N2CCN(S(=O)(=O)Cc3ccccc3)CC2)ncn(-c2cccc(Cl)c2)c1=O`, which IC50 (Beta-1,3-glucan synthase) is on record?
Answer: 2480 nM

Question: And the MIC50 (Candida albicans)?
Answer: 9 µg/mL (≈ 17 µM)

Question: What about the MIC (Candida albicans) of the same compound?
Answer: > 25 µg/mL

Question: Which results are given for `O=c1c(OC2CCCC2)c(N2CCN(S(=O)(=O)c3ccccc3)CC2)cnn1-c1cccc(Cl)c1`?
Answer: MIC (Nakaseomyces glabratus): 0.3 µg/mL (≈ 0.582 µM); MIC (Candida albicans): 3.1 µg/mL (≈ 6.02 µM)
